Assay results: article PMC6337383, “Discovery of Potent Inhibitors for the Large Neutral Amino Acid Transporter 1 (LAT1) by Structure-Based Methods” (International Journal of Molecular Sciences, 2018)
Read-outs that look alike come from different tables or passages of the source.

How the values were obtained:
[1] = system: LAT1; conditions: S2 cells; cited from earlier work
[2] = system: LAT1; conditions: human colon cancer (HT-29) cells; cited from earlier work
[3] = molecular target: T1, recombinant human LAT1 (Homo sapiens, UniProt Q01650); test: Inhibition of LAT1 mediated [3H]-His transport in proteoliposomes reconstituted with recombinant purified human LAT1; type: biochemical; conditions: 100 µM concentration, n = 3, Table S6
T1 construct: made in house; host or cells: E. coli
T1 sequence (Q01650 whole entry): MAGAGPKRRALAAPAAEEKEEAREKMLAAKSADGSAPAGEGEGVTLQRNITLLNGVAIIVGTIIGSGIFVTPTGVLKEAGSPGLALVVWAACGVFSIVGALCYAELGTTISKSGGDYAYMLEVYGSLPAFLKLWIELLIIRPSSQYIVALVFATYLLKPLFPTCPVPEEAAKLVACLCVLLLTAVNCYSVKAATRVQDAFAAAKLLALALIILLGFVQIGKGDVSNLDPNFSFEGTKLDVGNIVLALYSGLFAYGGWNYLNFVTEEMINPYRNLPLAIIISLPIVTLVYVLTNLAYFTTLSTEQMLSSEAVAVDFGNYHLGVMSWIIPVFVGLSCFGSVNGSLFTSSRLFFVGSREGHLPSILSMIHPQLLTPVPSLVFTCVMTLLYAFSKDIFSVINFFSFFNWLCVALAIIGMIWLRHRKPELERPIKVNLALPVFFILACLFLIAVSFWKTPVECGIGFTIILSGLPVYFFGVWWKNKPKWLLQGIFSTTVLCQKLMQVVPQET
Experimental: All 30 compounds were evaluated for their potency to inhibit LAT1 mediated histidine transport in proteoliposomes reconstituted with recombinant purified human LAT1 (see Methods). […]
Human LAT1 was over-expressed in E. coli and was purified as previously described. In brief, solubilized cell lysate was centrifuged (12,000× g, 10 min, 4 °C); supernatant was applied on a His-Trap HP column (5 mL Ni Sepharose) connected to ÄKTA start system. The column was equilibrated with 10 mL buffer (20 mM Tris HCl pH 8.0, 10% glycerol, 200 mM NaCl, 0.1% sarkosyl) prior to supernatant application. The column was washed with 10 mL buffer (20 mM Tris HCl pH 8.0, 10% glycerol, 200 mM NaCl, 0.05% DDM, and 2 mM DTE) and the protein was eluted with the same buffer plus 400 mM imidazole. Purified protein was desalted, in order to remove imidazole, using a PD-10 column in a buffer containing 20 mM Tris HCl pH 8.0, 10% glycerol, 0.05% DDM and 10 mM DTE.
The purified human LAT1 was reconstituted by detergent removal approach using the batch-wise method, as previously described. In brief, the initial mixture contained: 4 μg of purified protein, 100 μL of 10% C12E8, 100 μL of 10% egg yolk phospholipids (w/v) in the form of liposomes that were prepared as previously described, 20 mM Tris HCl pH 7.5, and 10 mM L-His in a final volume of 700 μL. This mixture was incubated with 0.5 g of Amberlite XAD-4 for 90 min at 23 °C, 1200 rpm to retain detergent.
To perform transport assays, the external substrate was removed by gel filtration chromatography: 600 μL of proteoliposomes were passed through a Sephadex G-75 column (0.7 cm diameter × 15 cm height) pre-equilibrated with 20 mM Tris HCl pH 7.5 and a concentration of sucrose to balance internal osmolarity. Transport was started adding 5 μM [^3H]-His to proteoliposomes and stopped after 30 min according to the stop inhibitor method, as previously described. In brief, in controls 1.5 µM HgCl2 was added at time zero and radioactivity was subtracted to samples for calculating net transport. After stopping the transport reaction, 100 μL of proteoliposomes was subjected to gel filtration chromatography using a Sephadex G-75 column (0.6 cm diameter × 8 cm height), to separate the external from the internal radioactivity. Proteoliposomes were eluted with 1 mL 50 mM NaCl in 4 mL scintillation mixture and counted. […] Protein concentration was estimated by Chemidoc imaging system1 [104] to calculate the human LAT1 specific activity.

[4] = system: cancer growth; design: method as in PMID 21187458, PMID 18520037, PMID 18813831; conditions: cited from earlier work
[5] = molecular target: T1, recombinant human LAT1; conditions: same test system, determined previously; cited from earlier work

Row | SMILES | IC50 [1] | IC50 [2] | % Residual Activity [3] | concentration required to attain antiproliferative effects [4] | IC50 [5]
1 | Nc1cc(COc2c(Cl)cc(C[C@H](N)C(=O)O)cc2Cl)c2oc(-c3ccccc3)nc2c1 [Compound 2] | 140 nM | 60 nM | – | – | –
2 | NC1(C(=O)O)CC2CCC1C2 (centres unmarked) [Compound 1, 2-Amino-2-norbornanecarboxylic acid] | – | – | 6.1% | > 10 mM | 6800 ± 270 nM
